Test results as given in patent US9358276B2, “Methods of diagnosing and treating small intestinal bacterial overgrowth (SIBO) and SIBO-related conditions” (Cedars-Sinai Medical Center, priority 1999, dated 2016).

Tests used:
intestinal transit = assay: Intestinal transit in multi-fistulated dogs, cumulative % recovery of 99mTc-DTPA; assay type: in vivo, dog
Procedure, shortened: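 Fistulated mongrel dogs (~25 kg) had the ~150 cm segment between duodenal and mid-gut fistulas isolated by occluding catheters and perfused at 2 mL/min with buffer plus test agent (some given i.v.). About 20 μCi 99mTc-DTPA was given as a bolus at 60 min of a 90-min perfusion. Mid-gut output was collected every 5 min for 30 min, gamma-counted, and reported as cumulative % recovery.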

[1] = test system: release of 5-HT from the proximal gut; assay: 5-HT released by the proximal gut (ELISA of mid-gut fistula output); assay type: in vivo, dog; conditions: for amount of 5-HT released by the proximal gut: n=1
Procedure: To test the hypothesis that fat in the distal gut causes the release of 5-HT in the proximal gut, the amount of 5-HT collected from the output of the mid-gut fistula (proximal gut 5-HT) over a 90-minute period of buffer perfusion through both the duodenal and mid-gut fistulas (2 mL/min); buffer (control) or oleate (60 mM) was administered to the distal gut (n=1). The amount of 5-HT was determined using an ELISA kit specific for 5-HT (Sigma; Graham-Smith, D. G., The carcinoid syndrome, In: Topics in Gastroenterology, Truclove, S. C. and Lee, E. (eds.), Blackwells, London, p. 275 [1977]; Singh, S. M. et al., Concentrations of serotonin in plasma-a test for appendicitis?, Clin. Chem. 34:2572-2574 [1988]). The amount of 5-HT released by the proximal gut increased in response to fat in the distal gut from 100 μg in the control (buffer minus oleate) to 338 μg (buffer plus oleate to distal gut), showing that 5-HT is released in the proximal gut in response to fat in the distal gut. Thus, the release of 5-HT by the proximal gut can serve as a relayed signal for fat in the distal gut. The relayed release of 5-HT in the proximal gut in response to fat in the distal gut is consistent with Example 14(2), showing that slowing of intestinal transit by fat depends on an efferent 5-HT-mediated pathway to the proximal gut.
To test the hypothesis that 5-HT in the distal gut causes the release of 5-HT in the proximal gut, the amount of 5-HT collected from the output at the mid-gut fistula (Proximal gut 5-HT) over a 90-minute period of buffer perfusion through both the duodenal and mid-gut fistulas (2 mL/min each) was compared in the presence or absence of 5-HT (0.05 mg/kg/h) administered to the distal gut (n=1). 5-HT concentration was determined using an ELISA kit specific for 5-HT (Sigma). The amount of 5-HT released by the proximal gut increased from 156 μg in the control (minus distal 5-HT) to 450 μg (plus 5-HT to distal gut), implying that 5-HT is released by the proximal gut in response to 5-HT in the distal gut. Thus, the release of 5-HT by the proximal gut can serve as a relayed signal for distal gut 5-HT. This relayed release of 5-HT in the proximal gut explains the results of Example 14(6) showing that the slowing of intestinal transit by distal gut 5-HT was abolished by ondansetron in the proximal gut (efferent limb of response) as well as in the distal gut (afferent limb of response).
To test the hypothesis that the proximal gut releases 5-HT in response to lipid in the distal gut, we compared the amount of 5-HT in the output of the midgut fistula (i.e., proximal gut 5-HT) with buffered saline (control) or oleate in the distal gut. The amount of 5-HT collected over 90 min was measured using a 5-HT-specific ELISA test kit, as described herein above. Four dogs were tested.
The amount of 5-HT released from the proximal gut in response to intravenous PYY or buffered saline (Control) during buffer perfusion (2 mL/min over 90 minutes) through both the duodenal and mid-gut fistulas was measured to test the hypothesis that intravenous PYY (0.8 mg/kg/h) causes the release of 5-HT in the proximal gut. 5-HT was measured as in Example 14(9) above. The amount of 5-HT released by the proximal gut increased from 140.1 μg (Control) to 463.1 μg in response to intravenous PYY.

SIBO = assay: Neomycin treatment of SLE subjects with SIBO; assay type: in vivo, human
Procedure: Fifteen of the 202 (7.4%) subjects in the database had been diagnosed with SLE. Of these 15 subjects, 13 (87%) had bacterial overgrowth, as indicated by LBHT. Four of the 15 subjects with SLE returned for follow-up LBHT and questionnaire after treatment with neomycin (500 mg twice daily for 10 days). […] (Table 3).

Compound	proximal intestinal transit, cumulative % marker recovered (intestinal transit; 60 mM oleate distal gut, Saline (i.v.), Buffer Control 70.11 ± 6.51, five dogs) [%]	marker recovery (intestinal transit; 60 mM oleate in proximal gut + normal saline (jejunal brake), n=3) [%]	marker recovery (intestinal transit; 60 mM oleate in proximal gut with 0 mg naloxone, n=7) [%]	marker recovery (intestinal transit; 60 mM oleate into distal gut, Buffer Control 79.7±5.8%, n=2 dogs) [%]	marker recovery (intestinal transit; 60 mM oleate to distal gut (ileal brake), Buffer Control 81.2%) [%]	marker recovery (intestinal transit; ileal brake (oleate in distal gut, buffer in proximal gut), control 76.3±3.1%, four dogs) [%]	marker recovery (intestinal transit; ileal brake, 60 mM oleate into distal gut, n=2) [%]	marker recovery (intestinal transit; ileal brake, 60 mM oleate to distal gut, no naloxone, n=11) [%]	amount of 5-HT released by the proximal gut ([1]; 60 mM oleate to distal gut without intravenous PYY) [µg]	amount of 5-HT released by the proximal gut ([1]; 60 mM oleate to distal gut, 90 min, control 100 μg) [µg]	amount of proximal gut 5-HT ([1]; oleate in distal gut, 90 min, buffer 82.7±20.53 ng, four dogs) [ng]	VAS score Fatigue, After Antibiotic (SIBO; four SLE patients)	VAS score Gas, After Antibiotic (SIBO; four SLE patients)	VAS score Joint Pains, After Antibiotic (SIBO; four SLE patients)	VAS score Bloating, After Antibiotic (SIBO; four SLE patients, neomycin 500 mg twice daily for 10 days)	LBHT result after treatment (SIBO; four SLE subjects)
CCCCCCCC/C=C\CCCCCCCC(=O)[O-].[Na+] [oleate, sodium oleate]	26.62 ± 5.36	41.6±4.6	30.0±3.6	25.8±5.2	24.1	22.9±3.8	20±1.8	34.6±4.8	509.8	338	211.75 ± 35.44					
neomycin												3.5 ± 1.4	1.9 ± 1.7	0.5 ± 0.6	1.3 ± 1.3	negative for SIBO
